This passage reports Kd and IC50 results from US8173606B2, “Sulfated oligosaccharide derivatives” (Progen Pharmaceuticals Limited, priority 2004, dated 2012).

For one test, the target named is FGF-1 (Homo sapiens, UniProt P05230). In words: SPR based solution affinity assay, growth factor binding (FGF-1). The conditions noted are these: heparin-coated sensorchip, HBS-EP buffer, 25° C.; read-out: Kd aFGF. Here is the method:
Binding affinities of ligands for the growth factors FGF-1, FGF-2 and VEGF were measured using a surface plasmon resonance (SPR) based solution affinity assay. The principle of the assay is that heparin immobilised on a sensorchip surface distinguishes between free and bound growth factor in an equilibrated solution of the growth factor and a ligand. Upon injection of the solution, the free growth factor binds to the immobilised heparin, is detected as an increase in the SPR response and its concentration thus determined. A decrease in the free growth factor concentration as a function of the ligand concentration allows for the calculation of the dissociation constant, Kd. It is important to note that ligand binding to the growth factors can only be detected when the interaction involves the HS binding site, thus eliminating the chance of evaluating non-specific binding to other sites on the protein. A 1:1 stoichiometry has been assumed for all protein:ligand interactions.
For the testing of growth factor binding activity, heparin-coated sensorchips were used. Their preparation, via immobilisation of biotinylated BSA-heparin on a streptavidin-coated sensorchip, has been described.[5] Heparin has also been immobilised via aldehyde coupling using either adipic acid dihydrazide or 1,4-diaminobutane. […] Ligands binding to FGF-1 and VEGF were measured in HBS-EP buffer (10 mM HEPES, pH 7.4, 150 mM NaCl, 3.0 mM EDTA and 0.005% (v/v) polysorbate 20), while binding to FGF-2 was measured in HBS-EP buffer containing 0.3 M NaCl.[5] […] For each assay mixture, 50-200 μL of solution was injected at 5-40 μL/min and the relative binding response measured. […]
Sensorgram data were analysed using the BIAevaluation software (BIAcore). […]
[formula] and the binding equation[5] can be expressed as
The Kd values given are the values fit, using the binding equation, to a plot of [P] versus [L]total. Where Kd values were measured in duplicate, the values represent the average of the duplicate measurements. […]

The target in another test is T1, heparanase (Homo sapiens, UniProt Q9Y251).
T1 sequence (Q9Y251 158-543 limits assumed): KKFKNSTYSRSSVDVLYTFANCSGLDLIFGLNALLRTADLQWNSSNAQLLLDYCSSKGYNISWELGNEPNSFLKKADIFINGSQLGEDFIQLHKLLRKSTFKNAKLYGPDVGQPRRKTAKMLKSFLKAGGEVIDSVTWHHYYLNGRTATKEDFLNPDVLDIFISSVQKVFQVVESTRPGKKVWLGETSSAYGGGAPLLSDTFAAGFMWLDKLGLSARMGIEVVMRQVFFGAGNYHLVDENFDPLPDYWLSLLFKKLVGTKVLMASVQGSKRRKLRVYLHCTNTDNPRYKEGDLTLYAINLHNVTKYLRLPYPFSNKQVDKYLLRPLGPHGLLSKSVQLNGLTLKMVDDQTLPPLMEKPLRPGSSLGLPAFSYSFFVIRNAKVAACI
T1 sequence (Q9Y251 36-109 limits assumed): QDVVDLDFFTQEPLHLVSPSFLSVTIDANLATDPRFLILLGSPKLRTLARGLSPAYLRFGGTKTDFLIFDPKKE
In words: Heparanase inhibition, Microcon ultrafiltration assay. The conditions noted are these: 3H labelled HS, pH 5.0, 22° C., 2.5 h. It is filed as biochemical. The procedure: The heparanase assays were performed using a Microcon ultrafiltration assay. The assays rely on the principle of physically separating heparan sulfate (HS) that has been digested by heparanase from native HS to determine heparanase activity. The assay uses ultrafiltration devices (Microcon YM-10) to separate the smaller heparanase-cleaved HS fragments from native HS.
A reaction was set up with a volume of 90 μL, • 40 mM acetate buffer (pH 5.0) • 0.1 mg/mL BSA • 90 ng heparanase • 2.5 μM ^3H labelled HS • various concentrations of inhibitors.
The reactions were set up with all components except the ^3H labelled HS and allowed to equilibrate for 10 min at 22° C. The assays were then initiated by adding the HS and immediately 20 μL was taken, mixed with 80 μL of 10 mM phosphate (pH 7.0) and the 100 μL transferred to a Microcon YM-10 concentrator which was then centrifuged at approximately 14000 g for 5 min. The solution that passed through the membrane (filtrate) was retained. This sample was considered the time=0 sample. The assays (now 70 μL in volume) were allowed to react at 22° C. for 2.5 h and then the filtration step was repeated for three aliquots of 20 μL from each assay.
The time=0 filtrate and the three 2.5 h filtrate samples were counted for ^3H. The difference between the time=0 and the averaged 2.5 h samples gave the amount of heparanase activity. All inhibition assays were run with a heparanase standard assay which was identical to the assay composition above except no inhibitor was present and the amount of heparanase inhibition in the other assays determined by comparison with this standard.

Test [1] concerns herpes simplex virus (HSV-1) KOS321 strain. In words: Antiviral assay, HSV-1 infectivity (plaque forming units). The test is classed as cell-based. The conditions noted are these: African green monkey kidney cells; virus pre-incubated with compound 10 min. The source says:
In panel A, the results are expressed as a percentage of the number of viral plaque forming units (PFU) formed in cells infected with the compound-treated virions relative to mock-treated controls. In panel B, the results are expressed as a percentage of the average area of 20 viral plaques formed in the continuous presence of compound relative to mock-treated control cells. Monolayer cultures of African green monkey kidney cells[35] and herpes simplex virus (HSV-1) KOS321 strain[36] were used throughout. The antiviral assays on the compounds were performed as described by Nyberg et al.[13] Briefly, the effects of the compounds on the infection of cells by exogenously added virus were tested by mixing serial fivefold dilutions of compound (at 0.032-20 μM) with approximately 200 plaque forming units of the virus. Following incubation of the virus and compound for 10 min at room temperature, the mixture was added to the cells and left on the cell monolayer for 2 h at 37° C. Subsequently, the inoculum was aspirated and replaced with an overlay medium of 1% methylcellulose solution in Eagle's minimum essential medium (EMEM). The viral plaques that developed after incubation of cells for 3 days at 37° C. were stained with 1% crystal violet solution and counted. The effects of the compounds on cell-to-cell spread of HSV-1 were tested by adding serial fivefold dilutions of compound (at 0.032-20 μM) in the serum-free overlay medium to cells after their infection with HSV-1. After incubation of the compound with the cells for 3 days at 37° C., the images of 20 plaques were captured and subjected to area determination using IM500 software (Leica).

Chain of FGF-1 (P05230 whole entry, species assumed): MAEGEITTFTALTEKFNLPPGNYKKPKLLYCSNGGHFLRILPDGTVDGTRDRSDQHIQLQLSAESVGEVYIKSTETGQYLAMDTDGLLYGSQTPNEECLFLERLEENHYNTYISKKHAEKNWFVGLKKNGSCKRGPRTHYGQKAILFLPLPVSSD

In general, Kd refers to the free concentration of one partner at which half of the binding sites on the other are occupied at equilibrium, for simple one-to-one binding. Usually IC50 stands for the concentration needed to halve the response being measured. For the substance Benzyl Glycoside Polysulfate [PG500], the equilibrium dissociation constant (Kd) on FGF-1 is 0.12 ± 0.025 nM. For the same substance, the concentration for half-maximal inhibition (IC50) was 1830 ± 483 nM against heparanase and 2000 nM in test [1].
Turning to Octyl Glycoside Polysulfate [PG501], the Kd on FGF-1 was 0.144 ± 0.008 nM. Moreover, the half-maximal inhibitory concentration (IC50) against heparanase is 1640 ± 406 nM; in test [1], 1000 nM.
